Legend:
[1] = target: T1, Muscarinic acetylcholine receptor M4 (Homo sapiens, UniProt P08173); experiment: Binding affinity of compound was determined towards human Muscarinic acetylcholine receptor M4 using [3H]QNB radioligand
T1 sequence (P08173 whole entry): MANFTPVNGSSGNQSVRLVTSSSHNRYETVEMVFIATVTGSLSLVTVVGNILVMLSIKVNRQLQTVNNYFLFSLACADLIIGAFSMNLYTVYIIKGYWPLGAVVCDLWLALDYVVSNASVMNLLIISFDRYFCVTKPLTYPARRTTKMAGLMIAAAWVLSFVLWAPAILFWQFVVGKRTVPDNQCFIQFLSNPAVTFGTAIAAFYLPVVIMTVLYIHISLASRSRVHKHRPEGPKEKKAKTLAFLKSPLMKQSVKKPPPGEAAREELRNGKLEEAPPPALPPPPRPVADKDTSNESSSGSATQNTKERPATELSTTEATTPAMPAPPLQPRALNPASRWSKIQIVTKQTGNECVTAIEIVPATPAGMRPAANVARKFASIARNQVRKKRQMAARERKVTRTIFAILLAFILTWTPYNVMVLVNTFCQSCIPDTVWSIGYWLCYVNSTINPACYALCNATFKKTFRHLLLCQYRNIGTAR

[2] = target: T2, Muscarinic acetylcholine receptor M1 (Homo sapiens, UniProt P11229); experiment: Binding affinity of compound was determined towards human Muscarinic acetylcholine receptor M1 using [3H]QNB radioligand
T2 sequence (P11229 whole entry): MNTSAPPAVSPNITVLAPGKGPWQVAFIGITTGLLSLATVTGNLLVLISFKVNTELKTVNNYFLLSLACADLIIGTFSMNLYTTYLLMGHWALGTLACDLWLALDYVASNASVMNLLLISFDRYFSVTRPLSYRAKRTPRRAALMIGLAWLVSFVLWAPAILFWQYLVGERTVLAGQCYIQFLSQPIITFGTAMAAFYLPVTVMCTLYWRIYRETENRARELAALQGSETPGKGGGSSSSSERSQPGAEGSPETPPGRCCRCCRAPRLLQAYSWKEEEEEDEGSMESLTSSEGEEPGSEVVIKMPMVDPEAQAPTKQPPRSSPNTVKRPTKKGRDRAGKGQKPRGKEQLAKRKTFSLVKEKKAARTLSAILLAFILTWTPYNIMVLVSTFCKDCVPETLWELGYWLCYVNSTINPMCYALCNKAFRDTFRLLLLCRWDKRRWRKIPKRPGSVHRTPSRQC

[3] = target: Muscarinic acetylcholine receptor M3 (Homo sapiens, UniProt P20309); experiment: Binding affinity of compound was determined towards human Muscarinic acetylcholine receptor M3 using [3H]QNB radioligand
[4] = target: T3, Muscarinic acetylcholine receptor M5 (Homo sapiens, UniProt P08912); experiment: Binding affinity of compound was determined towards human Muscarinic acetylcholine receptor M5 using [3H]QNB radioligand
T3 sequence (P08912 whole entry): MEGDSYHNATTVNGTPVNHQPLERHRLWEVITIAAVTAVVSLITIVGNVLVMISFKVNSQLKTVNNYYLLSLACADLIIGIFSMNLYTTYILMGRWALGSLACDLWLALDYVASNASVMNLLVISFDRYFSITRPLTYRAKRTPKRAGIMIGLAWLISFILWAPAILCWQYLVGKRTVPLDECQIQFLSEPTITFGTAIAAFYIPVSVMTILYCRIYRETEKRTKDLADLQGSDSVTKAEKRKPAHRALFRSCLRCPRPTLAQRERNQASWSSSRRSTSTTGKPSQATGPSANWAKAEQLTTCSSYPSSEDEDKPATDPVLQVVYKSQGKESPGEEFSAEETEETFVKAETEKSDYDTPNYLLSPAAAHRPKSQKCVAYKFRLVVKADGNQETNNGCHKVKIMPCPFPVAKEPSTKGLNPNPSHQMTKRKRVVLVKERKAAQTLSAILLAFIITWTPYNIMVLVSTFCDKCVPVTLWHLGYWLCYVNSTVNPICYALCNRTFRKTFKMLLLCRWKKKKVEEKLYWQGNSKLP

[5] = target: T4, Muscarinic acetylcholine receptor M2 (Homo sapiens, UniProt P08172); experiment: Binding affinity of compound was determined towards human Muscarinic acetylcholine receptor M2 using [3H]QNB radioligand
T4 sequence (P08172 whole entry): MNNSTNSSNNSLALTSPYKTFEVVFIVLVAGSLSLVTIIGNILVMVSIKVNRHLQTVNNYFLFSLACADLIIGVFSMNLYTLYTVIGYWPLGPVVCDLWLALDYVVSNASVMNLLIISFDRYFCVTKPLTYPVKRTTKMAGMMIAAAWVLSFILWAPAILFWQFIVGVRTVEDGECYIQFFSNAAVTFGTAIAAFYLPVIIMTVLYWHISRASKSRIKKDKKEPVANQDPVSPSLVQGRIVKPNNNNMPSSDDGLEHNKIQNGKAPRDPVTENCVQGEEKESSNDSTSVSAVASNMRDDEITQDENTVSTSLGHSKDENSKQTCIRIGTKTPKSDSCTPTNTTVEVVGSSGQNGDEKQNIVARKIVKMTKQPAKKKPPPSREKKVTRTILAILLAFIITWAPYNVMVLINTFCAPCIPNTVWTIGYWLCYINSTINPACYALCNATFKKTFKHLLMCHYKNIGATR

Sequence of Muscarinic acetylcholine receptor M3 (P20309 whole entry): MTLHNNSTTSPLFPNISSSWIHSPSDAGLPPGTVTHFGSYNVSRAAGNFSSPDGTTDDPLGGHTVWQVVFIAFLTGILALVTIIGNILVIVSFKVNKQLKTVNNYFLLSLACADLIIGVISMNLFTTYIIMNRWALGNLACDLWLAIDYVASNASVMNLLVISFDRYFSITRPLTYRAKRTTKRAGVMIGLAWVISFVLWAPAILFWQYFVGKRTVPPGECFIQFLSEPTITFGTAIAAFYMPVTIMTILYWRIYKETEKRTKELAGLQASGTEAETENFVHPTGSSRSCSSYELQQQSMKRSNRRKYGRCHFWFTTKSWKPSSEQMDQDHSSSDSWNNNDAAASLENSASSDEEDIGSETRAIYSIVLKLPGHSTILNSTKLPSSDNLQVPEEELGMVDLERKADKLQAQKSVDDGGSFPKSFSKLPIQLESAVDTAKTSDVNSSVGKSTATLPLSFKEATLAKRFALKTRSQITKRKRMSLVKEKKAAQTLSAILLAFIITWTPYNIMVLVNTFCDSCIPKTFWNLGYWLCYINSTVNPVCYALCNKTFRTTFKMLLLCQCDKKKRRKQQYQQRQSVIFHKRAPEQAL

Row | SMILES | Ki [1] [µM] | Ki [2] [µM] | Ki [3] [µM] | Ki [4] [µM] | Ki [5] [µM]
1 | CCO/C(O)=C1\CN2CCCC(C2)C1=O (configuration not stated) | 2.6 | 1.2 | 1.5 | 0.98 | 1.6
2 | CCO/C(O)=C1\CN2CC(CCC2COCc2ccccc2)C1=O (stereo in doubt; 3) | 0.27 | 0.25 | 0.84 | 0.56 | 0.08
3 | CCO/C(O)=C1\CN2CC(CCC2COCc2ccccc2)C1=O (stereo in doubt; 4) | 11 | 6.6 | 7.5 | 3 | 4.1
4 | CCO/C(O)=C1\CN2CC(CCC2CN(C)C)C1=O (stereo in doubt; 5) | > 100 | > 100 | > 100 | > 100 | 86
5 | CCO/C(O)=C1\CN2CC(CCC2CN(C)C)C1=O (stereo in doubt; 6) | – | – | 37 | – | > 100
